These results are taken from ChEMBL document CHEMBL1123642, “Design and synthesis of phosphonate inhibitors of glutamine synthetase” (J Med Chem, 1987).

Assay [1] relates to glutamine synthetase (Pisum sativum). As to the kind of experiment: Tested for the inhibition of Glutamine synthetase (Pea seed) activity using biosynthetic assay [[…] (pH 7), 5 mM MgCl2] at a concentration of 0.1 mM. Particulars: Lathyrus oleraceus.
For assay [2], the system named is glutamine synthetase (Ovis aries). As to the kind of experiment: Tested for the inhibition of Glutamine synthetase (Ovine brain) activity using biosynthetic assay [[…] (pH 7), 5 mM MgCl2] at a concentration of 1.0 mM.
Assay [3] shares this test system. Nature of the assay: Tested for the inhibition of Glutamine synthetase (Ovine brain) activity using Gamma-glutamyl transferase assay [[…] (pH 7), 5 mM MgCl2] at a concentration of 0.1 mM.
The target in assay [4] is glutamine synthetase (Escherichia coli) (UniProt P0A9C5). As to the kind of experiment: Tested for the inhibition of Glutamine synthetase (Escherichia coli) activity using Gamma-glutamyl transferase assay [[…] (pH 7), 5 mM MgCl2] at a concentration of 10.0 mM.
Chain of glutamine synthetase (Escherichia coli) (P0A9C5 whole entry, looked up): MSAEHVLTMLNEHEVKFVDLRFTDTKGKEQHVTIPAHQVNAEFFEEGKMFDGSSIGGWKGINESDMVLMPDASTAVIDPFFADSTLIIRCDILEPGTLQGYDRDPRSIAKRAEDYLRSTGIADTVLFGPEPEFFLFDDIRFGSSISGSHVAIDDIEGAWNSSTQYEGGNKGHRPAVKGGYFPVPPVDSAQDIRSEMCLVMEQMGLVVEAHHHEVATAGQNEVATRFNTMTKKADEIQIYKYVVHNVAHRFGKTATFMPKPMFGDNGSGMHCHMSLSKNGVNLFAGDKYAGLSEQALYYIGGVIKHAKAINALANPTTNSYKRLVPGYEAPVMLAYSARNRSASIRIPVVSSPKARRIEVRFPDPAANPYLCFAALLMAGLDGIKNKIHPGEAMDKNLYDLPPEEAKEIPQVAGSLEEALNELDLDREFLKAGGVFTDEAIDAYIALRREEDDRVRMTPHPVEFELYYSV
Assay [5] deals with glutamine synthetase (Pisum sativum). Nature of the assay: Tested for the inhibition of Glutamine synthetase (Pea seed) activity using biosynthetic assay [[…] (pH 7), 5 mM MgCl2] at a concentration of 1.0 mM. Particulars: Lathyrus oleraceus.
For assay [6], the system named is glutamine synthetase (Ovis aries). As to the kind of experiment: Tested for the inhibition of Glutamine synthetase (Ovine brain) activity using biosynthetic assay [[…] (pH 7), 5 mM MgCl2] at a concentration of 0.1 mM.
The test system of assay [7] is glutamine synthetase (Pisum sativum). Nature of the assay: Tested for the inhibition of Glutamine synthetase (Pea seed) activity using Gamma-glutamyl transferase assay [[…] (pH 7), 5 mM MgCl2] at a concentration of 1.0 mM. To be noted: Lathyrus oleraceus.
For assay [8], the system named is glutamine synthetase (Ovis aries). As to the kind of experiment: Tested for the inhibition of Glutamine synthetase (Ovine brain) activity using biosynthetic assay [[…] (pH 7), 5 mM MgCl2] at a concentration of 10.0 mM.
Assay [9] has the same test system. As to the kind of experiment: Tested for the inhibition of Glutamine synthetase (Ovine brain) activity using Gamma-glutamyl transferase assay [[…] (pH 7), 5 mM MgCl2] at a concentration of 10.0 mM.
The test system of assay [10] is glutamine synthetase (Pisum sativum). Nature of the assay: Tested for the inhibition of Glutamine synthetase (Pea seed) activity using biosynthetic assay [[…] (pH 7), 5 mM MgCl2] at a concentration of 10.0 mM. Particulars: Lathyrus oleraceus.
Assay [11] shares this test system. As to the kind of experiment: Tested for the inhibition of Glutamine synthetase(Pea seed) activity using Gamma-glutamyl transferase assay [[…] (pH 7), 5 mM MgCl2] at a concentration of 10.0 mM. To be noted: Lathyrus oleraceus.
The test system is the same in assay [12]. Nature of the assay: Tested for the inhibition of Glutamine synthetase (Pea seed) activity using Gamma-glutamyl transferase assay [[…] (pH 7), 5 mM MgCl2] at a concentration of 0.1 mM. To be noted: Lathyrus oleraceus.
Assay [13] deals with glutamine synthetase (Escherichia coli) (UniProt P0A9C5). As to the kind of experiment: Tested for the inhibition of Glutamine synthetase (Escherichia coli) activity using biosynthetic assay [[…] (pH 7), 5 mM MgCl2] at a concentration of 0.1 mM.
Assay [14] relates to glutamine synthetase (Ovis aries). As to the kind of experiment: Tested for the inhibition of Glutamine synthetase (Ovine brain) activity using Gamma-glutamyl transferase assay [[…] (pH 7), 5 mM MgCl2] at a concentration of 1.0 mM.
Assay [15] addresses glutamine synthetase (Escherichia coli) (UniProt P0A9C5). As to the kind of experiment: Tested for the inhibition of Glutamine synthetase (Escherichia coli) activity using biosynthetic assay [[…] (pH 7), 5 mM MgCl2] at a concentration of 10.0 mM.
For assay [16] the target is unchanged. Nature of the assay: Tested for the inhibition of Glutamine synthetase (Escherichia coli) activity using Gamma-glutamyl transferase assay [[…] (pH 7), 5 mM MgCl2] at a concentration of 0.1 mM.
The target is the same in assay [17]. As to the kind of experiment: Tested for the inhibition of Glutamine synthetase (Escherichia coli) activity using Gamma-glutamyl transferase assay [[…] (pH 7), 5 mM MgCl2] at a concentration of 1.0 mM.
The target is the same in assay [18]. As to the kind of experiment: Tested for the inhibition of Glutamine synthetase (Escherichia coli) activity using biosynthetic assay [[…] (pH 7), 5 mM MgCl2] at a concentration of 1.0 mM.
Assay [19] has as its system glutamine synthetase (Pisum sativum). Nature of the assay: Tested for the inhibition of Glutamine synthetase (Pea seed) activity using Gamma-glutamyl transferase assay [[…] (pH 7), 5 mM MgCl2] at a concentration of 10.0 mM. Particulars: Lathyrus oleraceus.
The test system is the same in assay [20]. Nature of the assay: Tested for the inhibition of Glutamine synthetase (Pea seed) activity using biosynthetic assay [[…] (pH 7), 5 mM MgCl2] at a concentration of 0 mM. Particulars: Lathyrus oleraceus.
In assay [21] the target is glutamine synthetase (Escherichia coli) (UniProt P0A9C5). As to the kind of experiment: Tested for the inhibition of Glutamine synthetase (Escherichia coli) activity using biosynthetic assay [[…] (pH 7), 5 mM MgCl2] at a concentration of 0 mM.
For assay [22], the system named is glutamine synthetase (Ovis aries). As to the kind of experiment: Tested for the inhibition of Glutamine synthetase (Ovine brain) activity using biosynthetic assay [[…] (pH 7), 5 mM MgCl2] at a concentration of 0 mM.
Assay [23] deals with glutamine synthetase (Escherichia coli) (UniProt P0A9C5). As to the kind of experiment: Tested for the inhibition of Glutamine synthetase (Escherichia coli) activity using Gamma-glutamyl transferase assay [[…] (pH 7), 5 mM MgCl2] at a concentration of 0 mM.
Assay [24] relates to glutamine synthetase (Ovis aries). As to the kind of experiment: Tested for the inhibition of Glutamine synthetase (Ovine brain) activity using Gamma-glutamyl transferase assay [[…] (pH 7), 5 mM MgCl2] at a concentration of 0 mM.
In assay [25] the test system is glutamine synthetase (Pisum sativum). Nature of the assay: Tested for the inhibition of Glutamine synthetase (Pea seed) activity using Gamma-glutamyl transferase assay [[…] (pH 7), 5 mM MgCl2] at a concentration of 0 mM. To be noted: Lathyrus oleraceus.

Take `CC(N)(CCS(=O)(=O)CP(=O)(O)O)C(=O)O` (stereo not given): the Relative activity was 1.1 in [1]; 1 in assay [2]; 0.95 in assay [3]; 1 in [4]; 0.8 in assay [5]; 1.2 in assay [6]. In addition, the Relative activity in [7] is 0.9; in [8] it was 1; in [9], 0.8; in [10], 0.85; in assay [11], 0.9; in assay [12], 0.8. In addition, the Relative activity turned out to be 1.1 in assay [13]; 0.9 in assay [14]; 1 in assay [15]; 1.1 in assay [16]; 1.1 in assay [17]; 1 in assay [18].

For the molecule `CC(N)(CC[S+]([O-])CP(=O)(O)O)C(=O)O` (stereo not given), the Relative activity came out at 1.1 in assay [1]; 1.2 in assay [2]; 1 in assay [3]; 1.5 in assay [4]; 1.1 in [5]; 1.2 in assay [6]. The Relative activity in [7] was determined as 0.9; in assay [8], 1; in [9] it was 1.2; in assay [10] it was 0.75; in assay [19], 1; in assay [12], 0.9. Besides, the Relative activity in [13] stood at 1.2; in [14], 1; in [15], 0.95; in assay [16], 1; in assay [17] it was 1; in assay [18], 1.2.

Turning to `CC(N)(CCSCP(=O)(O)O)C(=O)O` (stereo not given), the Relative activity worked out at 1 in assay [20]; 1 in assay [1]; 1 in assay [2]; 1 in assay [21]; 1 in assay [3]; 1.5 in assay [4]. The Relative activity was determined as 1.2 in assay [5]; 1 in assay [22]; 1 in [6]; 1 in assay [7]; 1.2 in assay [8]; 1 in [23]. Also, the Relative activity in [9] turned out to be 1.1; in [10], 0.5; in [19] it was 1; in assay [24] it was 1; in [12], 1; in assay [13], 1. The Relative activity in assay [14] stood at 1; in assay [15], 1.25; in [16], 1.1; in [25], 1; in [17], 1.4; in assay [18] it was 1.95.
